Test results: patent publication US20120220581A1, “IMIDAZO[1,2-b]PYRIDAZINE DERIVATIVES AND THEIR USE AS PDE10 INHIBITORS” (Janssen-Cilag, S.A., priority 2009, published 2012)
Where two headings read alike, the source gives them in different places.

Legend:
[1] = target: PDE1B1 (Homo sapiens, UniProt Q01064); assay: In vitro PDE selectivity assay (SPA), PDE1B1; format: biochemical; details: hPDE1B1; read-out: PDE 1B1 (expressed as pIC50) (converted)
[2] = tested on: female hooded-Lister rats; assay: Object recognition test (NOR) after sub-chronic PCP; format: in vivo, rat; details: for LMA (no. of lines crossed): mean
Description: 60 female hooded-Lister rats (Charles River, UK) were used as subjects for these studies and weighed 248 g±20 g. Rats were allowed at least a 7-day acclimatization period to the animal unit prior to commencement of experimentation. Rats were housed in groups of 5 under standard laboratory conditions under a 12 h light:dark cycle, lights on at 0700 h. All testing was carried out in the light phase. Food and water were freely provided. All experiments were conducted in accordance with the Animals Scientific Procedures Act, U.K. 1986 and were approved by the University of Bradford ethical review panel.
40 mg of test compound was dissolved in 5 ml of 40% hydroxypropyl β-cyclodextrin (HPBC) solution. The solution was sonicated until completely dissolved. 2 ml of sterile water was added and the pH measured and adjusted with NaOH solution (0.1N) to obtain pH ˜4. Finally, sterile water was added to a final volume of 10 ml. This stock solution was then diluted in 20% HPBC to obtain the final concentrations. 100 mg of PQ10 was dissolved in a 40% HPBC solution and 8 mg of tartaric acid. The solution was sonicated until completely dissolved. 5 ml of sterile water was added and the pH measured and adjusted with NaOH solution (0.1N) to obtain pH ˜4. Finally sterile water was added to a final volume of 10 ml.
Test compound was administered at doses of 0.3 and 1.0 mg/kg via the oral route 30 min prior to testing.
PQ10 was administered at a dose of 1.0 mg/kg via the oral route 30 min prior to testing.
Certain pre-clinical tests allow the observation of relatively subtle cognitive deficits in the rat that resemble cognitive symptoms in subjects with schizophrenia. The cognitive deficits observed are seen in behaviours such as episodic memory, which can be measured by recognition tasks such as the novel object recognition (NOR) paradigm. A recognition memory task allows the comparison between presented stimuli and previously stored information. Ennaceur, A Delacour, J (1988) A new one-trial test for neurobiological studies of memory in rats Behav Brain Res 31: 47-59 described the NOR test in rats which was based on the differential exploration of familiar and new objects. The NOR test is a non-rewarded, ethologically relevant paradigm based on the spontaneous exploratory behaviour of rats that measures episodic memory. Each session consists of two trials. In the first trial, the rats are exposed to two identical objects in an open field. During the second trial, rats are exposed to two dissimilar objects, one familiar object from the first trial and one new object. Object recognition in rats can be measured as the difference in time spent exploring the familiar and the new object. […] The duration of each trial is also important as a preference for the novel object only lasts during the first 1 or 2 minutes, after which time preference diminishes as both objects become familiar and are explored equally.
Rats were randomly assigned to the 8 treatment groups
Rats were allowed to habituate to the empty test box and the behavioural test room environment for 1 h on day 1. Prior to behavioural testing on day 2 rats were given a further 3 min habituation.
Following the 3 min habituation period, the rats were given two 3 min trials (T1 and T2) which were separated by a 1 min inter-trial interval in the home cage during which the objects were changed.
In this trial, the animals were allowed to explore two identical objects (A1 and A2) for 3 min.
In this trial, the animals explored a familiar object (A) from T1 and a novel object (B) for 3 min. The familiar object presented during T2 was a duplicate of the object presented in T1 in order to avoid any olfactory trails.
The object exploration was defined by animals licking, sniffing or touching the object with the forepaws whilst sniffing, but not leaning against, turning around, standing or sitting on the object. […]

[3] = target: T1, Rat recombinant PDE10A (rPDE10A2) (Rattus norvegicus, UniProt Q9QYJ6); assay: In vitro assay PDE10A (SPA, 3H-cAMP); format: biochemical
T1 construct: inferred from the Ni metal chelate purification; made in house; host or cells: Sf9 insect cells (baculovirus)
T1 sequence (Q9QYJ6 1-794): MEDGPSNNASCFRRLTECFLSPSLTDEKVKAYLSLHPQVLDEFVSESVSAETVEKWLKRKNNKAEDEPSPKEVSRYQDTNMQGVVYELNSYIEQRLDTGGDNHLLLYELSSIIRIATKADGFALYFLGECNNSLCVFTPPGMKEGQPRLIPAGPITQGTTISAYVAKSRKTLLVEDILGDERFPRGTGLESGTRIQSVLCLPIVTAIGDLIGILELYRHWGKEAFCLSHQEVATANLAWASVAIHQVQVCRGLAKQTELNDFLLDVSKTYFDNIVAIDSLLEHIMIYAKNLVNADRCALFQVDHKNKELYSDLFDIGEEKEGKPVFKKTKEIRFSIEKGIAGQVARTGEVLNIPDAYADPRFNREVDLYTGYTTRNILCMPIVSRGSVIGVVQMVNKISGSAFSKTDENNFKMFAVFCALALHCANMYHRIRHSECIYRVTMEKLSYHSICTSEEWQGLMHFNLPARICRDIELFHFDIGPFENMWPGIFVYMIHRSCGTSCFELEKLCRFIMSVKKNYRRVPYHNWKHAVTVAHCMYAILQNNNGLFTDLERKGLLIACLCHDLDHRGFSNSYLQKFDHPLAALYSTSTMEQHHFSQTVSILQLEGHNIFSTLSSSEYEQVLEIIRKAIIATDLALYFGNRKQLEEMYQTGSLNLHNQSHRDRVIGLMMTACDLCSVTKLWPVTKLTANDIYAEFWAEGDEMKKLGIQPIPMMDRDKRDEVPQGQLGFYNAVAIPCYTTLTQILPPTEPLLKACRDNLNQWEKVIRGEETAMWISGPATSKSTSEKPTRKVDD
Procedure, shortened: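 Scintillation proximity read-out (cpm) of 3H-cAMP hydrolysis after 60 min at room temperature, with enzyme-free blanks and 1% DMSO controls. Enzyme was Sf9-expressed, Ni-sepharose-purified rat rPDE10A2; substrate 60 nM cAMP with tracer, buffer Tris pH 7.8 containing MgCl2 and EGTA.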

PDE1B1, sequence (Q01064 whole entry, species assumed): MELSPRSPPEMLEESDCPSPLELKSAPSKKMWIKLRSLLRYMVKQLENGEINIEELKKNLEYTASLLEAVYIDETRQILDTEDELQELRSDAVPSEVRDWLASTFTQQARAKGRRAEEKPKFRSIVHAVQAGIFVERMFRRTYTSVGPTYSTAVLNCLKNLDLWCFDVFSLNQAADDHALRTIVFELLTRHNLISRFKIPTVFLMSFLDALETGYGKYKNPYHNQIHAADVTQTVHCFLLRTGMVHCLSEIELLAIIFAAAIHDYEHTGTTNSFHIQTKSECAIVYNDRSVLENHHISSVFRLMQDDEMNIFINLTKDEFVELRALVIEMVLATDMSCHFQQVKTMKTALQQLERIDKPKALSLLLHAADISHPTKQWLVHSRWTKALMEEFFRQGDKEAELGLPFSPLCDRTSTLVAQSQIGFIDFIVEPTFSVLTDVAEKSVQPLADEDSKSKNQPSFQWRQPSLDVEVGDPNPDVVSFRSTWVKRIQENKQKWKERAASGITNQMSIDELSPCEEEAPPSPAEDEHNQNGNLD

SMILES	IC50 [1] [nM]	LMA (no. of lines crossed) ([2]; PCP + 0.3 mg/kg p.o.)	LMA (no. of lines crossed) ([2]; PCP + 1 mg/kg p.o.)	effects of acute treatment in the NOR task ([2]; acute treatment, oral route 30 min prior to testing, compound 1 0.3-1.0 mg/kg, PQ10 1.0 mg/kg, sub-chronic PCP female rats)	IC50 ([3]; Table 4 in vitro selectivity, read-out: PDE 10A2 (expressed as pIC50) (converted)) [nM]	IC50 ([3]; pIC50 corresponds to the −log IC50 expressed in mol/L, read-out: PDE10A2 pIC50 (converted)) [nM]
COCCc1ccc(-c2c(C)nc3c(N4CCOCC4)ccnn23)cn1 [compound 1, 3-[6-(2-methoxyethyl)-3-pyridinyl]-2-methyl-8-(4-morpholinyl)-imidazo[1,2-b]pyridazine]	5250	56.5 no. of lines crossed	56.4 no. of lines crossed	selective for the retention phase		
COCCOc1ccc(-c2c(C)nc3c(-c4ccncc4)ccnn23)cn1 [compound 21, 3-[6-(2-methoxyethoxy)-3-pyridinyl]-2-methyl-8-(4-pyridinyl)-imidazo[1,2-b]pyridazine]					102	102
